Structures can show the parent of a compound that is named as a salt. Where two headings read alike, the source gives them in different places.
Key:
[1] = physchem; settings: thermodynamic from solid
[2] = not given; remark: listed apart in the source
[3] = physchem; settings: thermodynamic from solid; remark: listed apart in the source
[4] = tested on: influenza A; test: Influenza A mouse model, Compound (1) with or without oseltamivir; format: in vivo, Mice
Experimental: Referring to FIG. 32, the potential for a positive therapeutic interaction between Compound (1) and oseltamivir against influenza A was explored in the mouse model. Mice were challenged with influenza A and dosed with vehicle (10 mL/kg 0.5% MC) or Compound (1) at 1, 3, 10, or 30 mg/kg BID alone, or in combination with 10 mg/kg BID oseltamivir. Therapy was started 48 hours post influenza A infection and continued for 10 days. All of the vehicle-treated controls succumbed to disease by study day 8 (Table 21).

SMILES: CC(C)(C)[C@@H](CC(=O)O)Nc1nc(-c2c[nH]c3ncc(F)cc23)ncc1F [FF Lot 7]
- Final Form (SGF (pH --1.5), 5 min): H3
- concentration, two-stage in vitro dissolution (SGF (pH --1.5), 5 min): 2.053
- Final Form (SGF (pH --1.5), 15 min): H3
- concentration, two-stage in vitro dissolution (SGF (pH --1.5), 15 min): 1.278
- Final Form (SGF (pH --1.5), 30 min): H3
- concentration, two-stage in vitro dissolution (SGF (pH --1.5), 30 min): 2.031
- Final Form (SGF (pH --1.5), 60 min): H3
- concentration, two-stage in vitro dissolution (SGF (pH --1.5), 60 min): 2.40
- Final Form (SIF (no pH Adjustment), 75 min): H3
- concentration, two-stage in vitro dissolution (SIF (no pH Adjustment), 75 min): 0.163
- Final Form (SIF (no pH Adjustment), 90 min): H3
- concentration, two-stage in vitro dissolution (SIF (no pH Adjustment), 90 min): 0.148
- Final Form (SIF (pH --6.4), 105 min): H3
- concentration, two-stage in vitro dissolution (SIF (pH --6.4), 105 min): 1.588
- Final Form (SIF (pH --6.4), 120 min): H3
- concentration, two-stage in vitro dissolution (SIF (pH --6.4), 120 min): 1.534
- Final Form (SIF (pH --6.4), 150 min): H3
- concentration, two-stage in vitro dissolution (SIF (pH --6.4), 150 min): 1.058
- Final Form (SIF (pH --6.4), 180 min): H3
- concentration, two-stage in vitro dissolution (SIF (pH --6.4), 180 min): 0.971
- Final Form (SIF (pH --6.4), 240 min): H3
- concentration, two-stage in vitro dissolution (SIF (pH --6.4), 240 min): 1.497

SMILES: CC(C)(C)[C@@H](CC(=O)O)Nc1nc(-c2c[nH]c3ncc(F)cc23)ncc1F [H2SO4 Salt]
- Final Form (SGF (pH --1.5), 5 min): H2SO4
- concentration, two-stage in vitro dissolution (SGF (pH --1.5), 5 min): 0.407
- Final Form (SGF (pH --1.5), 15 min): H2SO4
- concentration, two-stage in vitro dissolution (SGF (pH --1.5), 15 min): 0.407
- Final Form (SGF (pH --1.5), 30 min): H2SO4
- concentration, two-stage in vitro dissolution (SGF (pH --1.5), 30 min): 0.417
- Final Form (SGF (pH --1.5), 60 min): H2SO4
- concentration, two-stage in vitro dissolution (SGF (pH --1.5), 60 min): 0.399
- Final Form (SIF (no pH Adjustment), 75 min): H2
- concentration, two-stage in vitro dissolution (SIF (no pH Adjustment), 75 min): 0.242
- Final Form (SIF (no pH Adjustment), 90 min): H2
- concentration, two-stage in vitro dissolution (SIF (no pH Adjustment), 90 min): 0.236
- Final Form (SIF (pH --6.4), 105 min): H2
- concentration, two-stage in vitro dissolution (SIF (pH --6.4), 105 min): 1.373
- Final Form (SIF (pH --6.4), 120 min): H2
- concentration, two-stage in vitro dissolution (SIF (pH --6.4), 120 min): 1.284
- Final Form (SIF (pH --6.4), 150 min): H2
- concentration, two-stage in vitro dissolution (SIF (pH --6.4), 150 min): 0.396
- Final Form (SIF (pH --6.4), 180 min): H2
- concentration, two-stage in vitro dissolution (SIF (pH --6.4), 180 min): 0.652
- Final Form (SIF (pH --6.4), 240 min): H2
- concentration, two-stage in vitro dissolution (SIF (pH --6.4), 240 min): 0.789

SMILES: CC(C)(C)[C@@H](CC(=O)O)Nc1nc(-c2c[nH]c3ncc(F)cc23)ncc1F [HCl Salt]
- Final Form (SGF (pH --1.5), 5 min): Amorphous
- concentration, two-stage in vitro dissolution (SGF (pH --1.5), 5 min): 14.664
- Final Form (SGF (pH --1.5), 15 min): Amorphous
- concentration, two-stage in vitro dissolution (SGF (pH --1.5), 15 min): 16.565
- Final Form (SGF (pH --1.5), 30 min): Amorphous
- concentration, two-stage in vitro dissolution (SGF (pH --1.5), 30 min): 14.808
- Final Form (SGF (pH --1.5), 60 min): Amorphous
- concentration, two-stage in vitro dissolution (SGF (pH --1.5), 60 min): 15.135
- Final Form (SIF (no pH Adjustment), 75 min): H2
- concentration, two-stage in vitro dissolution (SIF (no pH Adjustment), 75 min): 0.747
- Final Form (SIF (no pH Adjustment), 90 min): H2
- concentration, two-stage in vitro dissolution (SIF (no pH Adjustment), 90 min): 0.964
- Final Form (SIF (pH --6.4), 105 min): H2
- concentration, two-stage in vitro dissolution (SIF (pH --6.4), 105 min): 0.474
- Final Form (SIF (pH --6.4), 120 min): H2
- concentration, two-stage in vitro dissolution (SIF (pH --6.4), 120 min): 0.477
- Final Form (SIF (pH --6.4), 150 min): H2
- concentration, two-stage in vitro dissolution (SIF (pH --6.4), 150 min): 0.749
- Final Form (SIF (pH --6.4), 180 min): H2
- concentration, two-stage in vitro dissolution (SIF (pH --6.4), 180 min): 0.340
- Final Form (SIF (pH --6.4), 240 min): H2
- concentration, two-stage in vitro dissolution (SIF (pH --6.4), 240 min): 0.395

SMILES: CC(C)(C)[C@@H](CC(=O)O)Nc1nc(-c2c[nH]c3ncc(F)cc23)ncc1F [Hydrate 1 of Compound (1)]
- solubility at 2 weeks ([1]; pH 0.84, saline or isotonic): 2150 µg/mL
- solubility at 2 weeks ([1]; pH 1.59, saline or isotonic): 1150 µg/mL
- solubility at 2 weeks ([1]; pH 2.84, saline or isotonic): 57 µg/mL
- solubility at 2 weeks ([1]; pH 4.22, saline or isotonic): 4 µg/mL
- solubility at 2 weeks ([1]; pH 5.17, saline or isotonic): 21 µg/mL
- solubility at 2 weeks ([1]; pH 5.96, saline or isotonic): 78 µg/mL
- solubility at 2 weeks ([1]; pH 6.38, saline or isotonic): 216 µg/mL
- solubility at 2 weeks ([1]; pH 6.71, saline or isotonic): 420 µg/mL
- solubility at 2 weeks ([1]; pH 7.07, saline or isotonic): 335 µg/mL
- solubility at 2 weeks ([1]; pH 7.73, saline or isotonic): 2240 µg/mL
- solubility at 2 weeks ([1]; pH 8.13, saline or isotonic): 4830 µg/mL
- solubility at 2 weeks ([1]; pH 8.4, saline or isotonic): 4360 µg/mL
- USP Definition ([2]; pH 0.84): Slightly Soluble
- USP Definition ([2]; pH 1.59): Slightly Soluble
- Final Form ([2]; pH 2.84): Hydrate 3
- USP Definition ([2]; pH 2.84): Practically Insoluble
- Final Form ([2]; pH 4.22): Hydrate 3
- USP Definition ([2]; pH 4.22): Practically Insoluble
- Final Form ([2]; pH 5.17): Hydrate 3
- USP Definition ([2]; pH 5.17): Practically Insoluble
- Final Form ([2]; pH 5.96): Hydrate 3
- USP Definition ([2]; pH 5.96): Practically Insoluble
- Final Form ([2]; pH 6.38): Hydrate 3
- USP Definition ([2]; pH 6.38): Very Slightly Soluble
- Final Form ([2]; pH 6.71): Hydrate 3
- USP Definition ([2]; pH 6.71): Very Slightly Soluble
- Final Form ([2]; pH 7.07): Hydrate 3
- USP Definition ([2]; pH 7.07): Very Slightly Soluble
- Final Form ([2]; pH 7.73): Hydrate 3
- USP Definition ([2]; pH 7.73): Slightly Soluble
- Final Form ([2]; pH 8.13): Hydrate 3
- USP Definition ([2]; pH 8.13): Slightly Soluble
- Final Form ([2]; pH 8.4): Hydrate 3
- USP Definition ([2]; pH 8.4): Slightly Soluble
- solubility at 5 days ([3]; pH 1.55, fassgf or other biorelevant): 2660 µg/mL
- solubility at 5 days ([3]; pH 3.56, aqueous with cosolvent or surfactant or cyclodextrin): 285 µg/mL
- solubility at 5 days ([3]; pH 3.96, aqueous with cosolvent or surfactant or cyclodextrin): 135 µg/mL
- solubility at 5 days ([3]; pH 4.15, aqueous with cosolvent or surfactant or cyclodextrin): 1150 µg/mL
- solubility at 5 days ([3]; pH 4.17, aqueous with cosolvent or surfactant or cyclodextrin): 1640 µg/mL
- solubility at 5 days ([3]; pH 4.18, saline or isotonic): 108 µg/mL
- solubility at 5 days ([3]; pH 4.79, aqueous with cosolvent or surfactant or cyclodextrin): 89 µg/mL
- solubility at 5 days ([3]; pH 4.84, saline or isotonic): 94 µg/mL
- solubility at 5 days ([3]; pH 4.93, aqueous with cosolvent or surfactant or cyclodextrin): 108 µg/mL
- solubility at 5 days ([3]; pH 5.03, water): 98 µg/mL
- solubility at 5 days ([3]; pH 5.04, aqueous with cosolvent or surfactant or cyclodextrin): 512 µg/mL
- solubility at 5 days ([3]; pH 5.08, aqueous with cosolvent or surfactant or cyclodextrin): 606 µg/mL
- solubility at 5 days ([3]; pH 5.11, fessif): 60 µg/mL
- solubility at 5 days ([3]; pH 5.13, aqueous with cosolvent or surfactant or cyclodextrin): 354 µg/mL
- solubility at 5 days ([3]; pH 5.22, aqueous with cosolvent or surfactant or cyclodextrin): 1620 µg/mL
- solubility at 5 days ([3]; pH 5.39, aqueous with cosolvent or surfactant or cyclodextrin): 110 µg/mL
- solubility at 5 days ([3]; pH 5.53, aqueous with cosolvent or surfactant or cyclodextrin): 223 µg/mL
- solubility at 5 days ([3]; pH 5.58, saline or isotonic): 228 µg/mL
- solubility at 5 days ([3]; pH 5.59, aqueous with cosolvent or surfactant or cyclodextrin): 152 µg/mL
- solubility at 5 days ([3]; pH 5.74, aqueous with cosolvent or surfactant or cyclodextrin): 289 µg/mL
- solubility at 5 days ([3]; pH 5.78, aqueous with cosolvent or surfactant or cyclodextrin): 1020 µg/mL
- solubility at 5 days ([3]; pH 5.83, aqueous with cosolvent or surfactant or cyclodextrin): 1170 µg/mL
- solubility at 5 days ([3]; pH 5.97, aqueous with cosolvent or surfactant or cyclodextrin): 272 µg/mL
- solubility at 5 days ([3]; pH 6.04, aqueous with cosolvent or surfactant or cyclodextrin): 467 µg/mL
- solubility at 5 days ([3]; pH 6.17, aqueous with cosolvent or surfactant or cyclodextrin): 120 µg/mL
- solubility at 5 days ([3]; pH 6.18, aqueous with cosolvent or surfactant or cyclodextrin): 170 µg/mL
- solubility at 5 days ([3]; pH 6.19, aqueous with cosolvent or surfactant or cyclodextrin): 200 µg/mL
- solubility at 5 days ([3]; pH 6.47, fassif): 80 µg/mL
- solubility at 5 days ([3]; pH 6.61, aqueous buffer): 945 µg/mL
- solubility at 5 days ([3]; pH 6.63, aqueous buffer): 979 µg/mL
- solubility at 5 days ([3]; pH 6.7, aqueous with cosolvent or surfactant or cyclodextrin): 360 µg/mL
- solubility at 5 days ([3]; pH 7.42, aqueous buffer): 7620 µg/mL
- solubility at 5 days ([3]; pH 7.46, aqueous buffer): 6620 µg/mL

SMILES: CCOC(=O)C1=C[C@@H](OC(CC)CC)[C@H](NC(C)=O)[C@@H](N)C1 [Oseltamivir, oseltamivir, reference compound]
- Percent Survival ([4]; Oseltamivir 10 mg/kg BID alone, started +48 hours after infection, 10 days): 0%
- protection from mortality ([4]; administered alone: Compound (1) 1 mg/kg BID, oseltamivir 10 mg/kg): failed to protect mice from influenza infection

From patent US10273233B2, “Inhibitors of influenza viruses replication” (Vertex Pharmaceuticals Incorporated, priority 2015, dated 2019)
